Source: patent publication US7291580B2, “6-(1,1-difluoroalkyl)-4-aminopicolinates and their use as herbicides” (Dow AgroSciences LLC, priority 2004, dated 2007)

Key:
[1] = test system: Crabgrass (large) (Digitaria sanguinalis); test: Preemergence herbicidal activity; type: in vivo; conditions: rate 560 ppm; visual score after 3 weeks, 0 = no injury, 100 = complete kill or no germination
Procedure: (§1) The soil matrix was contained in plastic pots with a surface area of 113 square centimeters. […] The stock solutions obtained were diluted with a 99.9:0.1 mixture of water and Tween® […] surfactant to obtain application solutions of known concentration. […] A 2.5 mL aliquot of each solution of known concentration was sprayed evenly onto the soil surface (113 sq. cm) of each seeded pot using a Cornwall 5.0 mL glass syringe fitted with a TeeJet TN-3 hollow cone nozzle to obtain thorough coverage of the soil in each pot. […] The water was added by top-irrigation.

[2] = test system: Giant Foxtail (Setaria faberi); test: Preemergence herbicidal activity; type: in vivo; conditions: rate 560 ppm; visual score after 3 weeks, 0 = no injury, 100 = complete kill or no germination
Procedure: as §1

[3] = test system: Lambsquarter (Chenopodium album); test: Preemergence herbicidal activity; type: in vivo; conditions: rate 560 ppm; visual score after 3 weeks, 0 = no injury, 100 = complete kill or no germination
Procedure: as §1

[4] = test system: Ivyleaf Morningglory (Ipomoea hederacea); test: Preemergence herbicidal activity; type: in vivo; conditions: rate 560 ppm; visual score after 3 weeks, 0 = no injury, 100 = complete kill or no germination
Procedure: as §1

[5] = test system: Barnyardgrass (Echinochloa crus-galli); test: Postemergence herbicidal activity; type: in vivo; conditions: visual score after 2 weeks, 0 = no injury, 100 = complete kill
Procedure: (§2) Seeds of the desired test plant species were planted in Grace-Sierra MetroMix® 306 planting mixture, which typically has a pH of 6.0 to 6.8 and an organic matter content of about 30 percent, in plastic pots with a surface area of 64 square centimeters. […] The plants were grown for 7-21 days in a greenhouse with an approximate 15 hr photoperiod which was maintained at about 23-29° C. during the day and 22-28° C. during the night. Nutrients and water were added on a regular basis and supplemental lighting was provided with overhead metal halide 1000-Watt lamps as necessary. The plants were employed for testing when they reached the first or second true leaf stage.
(§3) A weighed amount, determined by the highest rate to be tested, of each test compound was placed in a 20 mL glass vial and was dissolved in 4 mL of a 97:3 v/v (volume/volume) mixture of acetone and dimethyl sulfoxide (DMSO) to obtain concentrated stock solutions. […] The concentrated stock solutions obtained were diluted with an aqueous mixture containing acetone, water, isopropyl alcohol, DMSO, Atplus 411F crop oil concentrate, and Triton X-155 surfactant in a 48.5:39:10:1.5:1.0:0.02 v/v ratio to obtain spray solutions of known concentration. The solutions containing the highest concentration to be tested were prepared by diluting 2 mL aliquots of the stock solution with 13 mL of the mixture and lower concentrations were prepared by serial dilution of the stock solution. Approximately 1.5 mL aliquots of each solution of known concentration were sprayed evenly onto each of the test plant pots using a DeVilbiss atomizer driven by compressed air pressure of 2 to 4 psi (140 to 280 kiloPascals) to obtain thorough coverage of each plant. Control plants were sprayed in the same manner with the aqueous mixture. In this test an application rate of 1 ppm results in the application of approximately 1 g/Ha.
(§4) The treated plants and control plants were placed in a greenhouse as described above and watered by sub-irrigation to prevent wash-off of the test compounds. After 2 weeks the condition of the test plants as compared with that of the untreated plants was determined visually and scored on a scale of 0 to 100 percent where 0 corresponds to no injury and 100 corresponds to complete kill.

[6] = test system: Cocklebur (Xanthium strumarium); test: Postemergence herbicidal activity; type: in vivo; conditions: visual score after 2 weeks, 0 = no injury, 100 = complete kill
Procedure: as §2, §3, §4

[7] = test system: Giant Foxtail (Setaria faberi); test: Postemergence herbicidal activity; type: in vivo; conditions: visual score after 2 weeks, 0 = no injury, 100 = complete kill
Procedure: as §2, §3, §4

[8] = test system: Lambsquarter (Chenopodium album); test: Postemergence herbicidal activity; type: in vivo; conditions: visual score after 2 weeks, 0 = no injury, 100 = complete kill
Procedure: as §2, §3, §4

[9] = test system: Pigweed (redroot) (Amaranthus retroflexus); conditions: rate 123 (unit not given); visual score after 2 weeks, 0 = no injury, 100 = complete kill
Procedure: as §2
(§5) A weighed amount, determined by the highest rate to be tested, of each test compound was placed in a 20 mL glass vial and was dissolved in 4 mL of a 97:3 v/v (volume/volume) mixture of acetone and dimethyl sulfoxide (DMSO) to obtain concentrated stock solutions. […]
as §4

[10] = test system: Wheat (var.Merica) (Triticum aestivum); conditions: rate 123 (unit not given); crop selectivity to wheat; visual score after 2 weeks, 0 = no injury, 100 = complete kill
Procedure: as §2, §5, §4

Row | Structure (SMILES) | Pre-emergent (% injury) DIGSA [1] [%] | Pre-emergent (% injury) SETFA [2] [%] | Pre-emergent (% injury) CHEAL [3] [%] | Pre-emergent (% injury) IPOHE [4] [%] | Post-emergent (% injury) ECHCG ([5]; rate 245 ppm) [%] | Post-emergent (% injury) XANST ([6]; rate 245 ppm) [%] | Post-emergent (% injury) SETFA ([7]; rate 245 ppm) [%] | Post-emergent (% injury) CHEAL ([8]; rate 123 (unit not given)) [%] | Post-emergent (% injury) CHEAL ([8]; rate 245 ppm) [%] | Post-emergent (% injury) AMARE [9] [%] | Post-emergent (% injury) TRZAS [10] [%] | Post-emergent (% injury) ECHCG ([5]; rate 250 ppm) [%] | Post-emergent (% injury) XANST ([6]; rate 250 ppm) [%] | Post-emergent (% injury) SETFA ([7]; rate 250 ppm) [%] | Post-emergent (% injury) CHEAL ([8]; rate 250 ppm) [%]
1 | COC(=O)c1nc(C(C)(F)F)cc(N)c1Cl [Compound 1, Methyl 4-amino-3-chloro-6-(1,1-difluroethyl)pyridine-2-carboxylate] | 100 | 100 | 100 | 100 | 75 | 100 | 65 | 100 | 100 | 100 | 0 | – | – | – | –
2 | CC(F)(F)c1cc(N)c(Cl)c(C(=O)O)n1 [Compound 2, 4-amino-3-chloro-6-(1,1-difluoroethyl)pyridine-2-carboxylic acid] | 98 | 95 | 100 | 100 | – | – | – | – | – | – | – | 80 | 100 | 85 | 100
